Assay results published in ChEMBL document CHEMBL1129219, “Use of CoMFA in validating the conformation used in designing 4-(1H-benzimidazole-2-carbonyl)piperidines with H1/NK1 receptor antagonist activity” (Bioorg Med Chem Lett, 1997).
pIC50: −log10 of the molar value.

Biological target: Histamine H1 receptor (Homo sapiens, UniProt P35367)
Test: Antagonistic activity against histamine H1 receptor
Format: functional

Histamine H1 receptor, sequence (P35367 whole entry): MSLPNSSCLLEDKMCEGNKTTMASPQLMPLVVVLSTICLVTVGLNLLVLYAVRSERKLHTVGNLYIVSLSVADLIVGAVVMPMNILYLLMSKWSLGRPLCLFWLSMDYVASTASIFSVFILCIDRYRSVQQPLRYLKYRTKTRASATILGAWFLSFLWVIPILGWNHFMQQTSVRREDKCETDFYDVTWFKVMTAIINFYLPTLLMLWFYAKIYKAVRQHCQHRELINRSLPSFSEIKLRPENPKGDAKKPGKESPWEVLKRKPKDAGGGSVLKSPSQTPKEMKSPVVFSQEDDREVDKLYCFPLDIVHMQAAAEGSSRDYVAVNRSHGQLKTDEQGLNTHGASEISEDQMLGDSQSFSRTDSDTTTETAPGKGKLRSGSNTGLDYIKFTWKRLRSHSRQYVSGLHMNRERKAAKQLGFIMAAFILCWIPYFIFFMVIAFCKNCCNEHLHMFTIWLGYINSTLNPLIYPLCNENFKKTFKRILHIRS

| Compound | pIC50 |
| --- | --- |
| COc1cc(C(=O)N2CCC(CCN3CCC(C(=O)c4nc5ccccc5n4Cc4ccc(F)cc4)CC3)(c3ccc(Cl)c(Cl)c3)C2)cc(OC)c1OC (stereo not drawn) | 6.55 |
| COc1cc(C(=O)N2CCC(CCN3CCC(C(=O)c4nc5ccccc5n4Cc4ccncc4)CC3)(c3ccccc3)C2)cc(OC)c1OC (stereo not drawn) | 6.55 |
| COc1cc(C(=O)N2CCC(CCN3CCC(C(=O)c4nc5ccccc5n4CCN4CCOCC4)CC3)(c3ccc(Cl)c(Cl)c3)C2)cc(OC)c1OC (stereo not drawn) | 6.26 |
| COc1cc(C(=O)N2CCC(CCN3CCC(C(=O)c4nc5ccccc5n4Cc4ccccn4)CC3)(c3ccc(F)cc3)C2)cc(OC)c1OC (stereo not drawn) | 6.25 |
| COc1cc(C(=O)N2CCC(CCN3CCC(C(=O)c4nc5ccccc5n4Cc4ccccn4)CC3)(c3ccccc3)C2)cc(OC)c1OC (stereo not drawn) | 6.44 |
| COc1cc(C(=O)N2CCC(CCN3CCC(C(=O)c4nc5ccccc5[nH]4)CC3)(c3ccccc3)C2)cc(OC)c1OC (stereo not drawn) | 6.30 |
| COc1ccc(C2(CCN3CCC(C(=O)c4nc5ccccc5n4Cc4ccc(F)cc4)CC3)CCN(C(=O)c3ccccc3)C2)cc1OC (stereo not drawn) | 6.62 |
| COc1cc(C(=O)N2CCCC(CCN3CCC(C(=O)c4nc5ccccc5n4Cc4ccc(F)cc4)CC3)(c3ccc(Cl)c(Cl)c3)C2)cc(OC)c1OC (stereo not drawn) | 6.67 |
| COc1ccc(C2(CCN3CCC(C(=O)c4nc5ccccc5n4Cc4ccc(F)cc4)CC3)CCN(C(=O)c3cc(OC)c(OC)c(OC)c3)C2)cc1OC (stereo not drawn) | 6.48 |
| COC(=O)c1ccc(Cn2c(C(=O)C3CCN(CCC4(c5ccc(OC)c(OC)c5)CCN(C(=O)c5cc(OC)c(OC)c(OC)c5)C4)CC3)nc3ccccc32)cc1 (stereo not drawn) | 6.02 |
| COc1ccc(CCN2CCC(C(=O)c3nc4ccccc4n3Cc3ccc(F)cc3)CC2)cc1 | 7.23 |
| COc1ccc(C2(CCN3CCC(C(=O)c4nc5ccccc5[nH]4)CC3)CCN(C(=O)c3cc(OC)c(OC)c(OC)c3)C2)cc1OC (stereo not drawn) | 5.71 |
| COc1cc(C(=O)N2CCC(CCN3CCC(C(=O)c4nc5ccccc5n4Cc4ccc(C(=O)O)cc4)CC3)(c3ccccc3)C2)cc(OC)c1OC (stereo not drawn) | 4.47 |
| COc1ccc(C(=O)N2CCC(CCN3CCC(C(=O)c4nc5ccccc5n4Cc4ccc(F)cc4)CC3)(c3ccc4c(c3)OCO4)C2)c(OC)c1OC (stereo not drawn) | 6.59 |
| COc1cc(C(=O)N2CCC(CCN3CCC(C(=O)c4nc5ccccc5n4Cc4ccc(F)cc4)CC3)(c3ccc(C(F)(F)F)cc3)C2)cc(OC)c1OC (stereo not drawn) | 6.33 |
| CCOCCn1c(C(=O)C2CCN(CCC3(c4ccc(OC)c(OC)c4)CCN(C(=O)c4cc(OC)c(OC)c(OC)c4)C3)CC2)nc2ccccc21 (stereo not drawn) | 6.20 |

Now from value to compound:

| pIC50 | Compound |
| --- | --- |
| 4.56 | COc1ccc(C2(CCN3CCC(C(=O)c4nc5ccccc5n4Cc4ccc(C(=O)O)cc4)CC3)CCN(C(=O)c3cc(OC)c(OC)c(OC)c3)C2)cc1OC (stereo not drawn) |
| 6.63 | COc1cc(C(=O)N2CCC(CCN3CCC(C(=O)c4nc5ccccc5n4Cc4ccc(F)cc4)CC3)(c3ccccc3)C2)cc(OC)c1OC (stereo not drawn) |
| 6.42 | CCOCCn1c(C(=O)C2CCN(CCC3(c4ccccc4)CCN(C(=O)c4cc(OC)c(OC)c(OC)c4)C3)CC2)nc2ccccc21 (stereo not drawn) |
| 5.04 | COc1cc(C(=O)N2CCC(CCN3CCC(C(=O)c4nc5ccccc5n4CCCCOc4ccccc4C(=O)O)CC3)(c3ccccc3)C2)cc(OC)c1OC (stereo not drawn) |
| 6.69 | COc1cc(C(=O)N2CCC(CCN3CCC(C(=O)c4nc5ccccc5n4Cc4ccc(F)cc4)CC3)(c3ccc4c(c3)OCO4)C2)cc(OC)c1OC (stereo not drawn) |
| 6.36 | COc1cc(C(=O)N2CCC(CCN3CCC(C(=O)c4nc5ccccc5n4Cc4ccc(F)cc4)CC3)(c3ccc(F)cc3F)C2)cc(OC)c1OC (stereo not drawn) |
| 6.35 | COc1cc(C(=O)N2CCC(CCN3CCC(C(=O)c4nc5ccccc5n4CCOCc4ccco4)CC3)(c3ccccc3)C2)cc(OC)c1OC (stereo not drawn) |
| 6.30 | COc1ccc(C2(CCN3CCC(C(=O)c4nc5ccccc5n4Cc4ccccn4)CC3)CCN(C(=O)c3cc(OC)c(OC)c(OC)c3)C2)cc1 (stereo not drawn) |
| 6.02 | CCOC(=O)CCCn1c(C(=O)C2CCN(CCC3(c4ccc(Cl)c(Cl)c4)CCN(C(=O)c4cc(OC)c(OC)c(OC)c4)C3)CC2)nc2ccccc21 (stereo not drawn) |
| 5.00 | COc1cc(C(=O)N2CCC(CCN3CCC(C(=O)c4nc5ccccc5n4CCCC(=O)O)CC3)(c3ccc(Cl)c(Cl)c3)C2)cc(OC)c1OC (stereo not drawn) |
| 5.93 | COC(=O)c1ccc(Cn2c(C(=O)C3CCN(CCC4(c5ccccc5)CCN(C(=O)c5cc(OC)c(OC)c(OC)c5)C4)CC3)nc3ccccc32)cc1 (stereo not drawn) |
| 7.33 | COc1ccc(CCN2CCC(=Nc3nc4ccccc4n3Cc3ccc(F)cc3)CC2)cc1 |
| 6.60 | CCOCCn1c(C(=O)C2CCN(CCC3(c4ccc(F)cc4)CCN(Cc4cc(OC)c(OC)c(OC)c4)C3=O)CC2)nc2ccccc21 (stereo not drawn) |
| 6.47 | CCOCCn1c(C(=O)C2CCN(CCC3(c4ccc(Cl)c(Cl)c4)CCN(C(=O)c4cc(OC)c(OC)c(OC)c4)C3)CC2)nc2ccccc21 (stereo not drawn) |
| 6.60 | CC(C)Oc1cccc(CC(=O)N2CCC(CCN3CCC(C(=O)c4nc5ccccc5n4Cc4ccc(F)cc4)CC3)(c3ccc4c(c3)OCO4)C2)c1 (stereo not drawn) |
| 6.89 | O=C(c1nc2ccccc2n1Cc1ccc(F)cc1)C1CCN(CCC2(c3ccc4c(c3)OCO4)CCN(C(=O)c3ccc(Cl)cc3Cl)C2)CC1 (stereo not drawn) |
| 6.38 | COc1cc(C(=O)N2CCC(CCN3CCC(C(=O)c4nc5ccccc5n4Cc4cccnc4)CC3)(c3ccccc3)C2)cc(OC)c1OC (stereo not drawn) |
| 6.00 | COC(=O)c1ccccc1OCCCn1c(C(=O)C2CCN(CCC3(c4ccccc4)CCN(C(=O)c4cc(OC)c(OC)c(OC)c4)C3)CC2)nc2ccccc21 (stereo not drawn) |
| 6.53 | COc1cc(C(=O)N2CCC(CCN3CCC(C(=O)c4nc5ccccc5n4Cc4ccco4)CC3)(c3ccccc3)C2)cc(OC)c1OC (stereo not drawn) |
| 6.80 | CCOc1cc(C(=O)N2CCC(CCN3CCC(C(=O)c4nc5ccccc5n4Cc4ccc(F)cc4)CC3)(c3ccc(OC)c(OC)c3)C2)cc(OCC)c1OCC (stereo not drawn) |
| 6.39 | COc1cc(C(=O)N2CCC(CCN3CCC(C(=O)c4nc5ccccc5[nH]4)CC3)(c3ccc(Cl)c(Cl)c3)C2)cc(OC)c1OC (stereo not drawn) |
| 6.36 | COc1cc(C(=O)N2CCC(CCN3CCC(C(=O)c4nc5ccccc5n4Cc4ccccn4)CC3)(c3ccc(Cl)c(Cl)c3)C2)cc(OC)c1OC (stereo not drawn) |
